In US20260374773A1, “MULTI-CYCLIC IRAK AND FLT3 INHIBITING COMPOUNDS AND USES THEREOF” (CHILDREN'S HOSPITAL MEDICAL CENTER, priority 2022, published 2026):

Assays:
FLT3 = biological target: T1, FLT3 (Homo sapiens, UniProt P36888); assay: NanoBRET target engagement assay in HEK-293 cells, FLT3; format: cell-based; conditions: live HEK-293 cells, 1 h
T1 sequence (P36888 27-993): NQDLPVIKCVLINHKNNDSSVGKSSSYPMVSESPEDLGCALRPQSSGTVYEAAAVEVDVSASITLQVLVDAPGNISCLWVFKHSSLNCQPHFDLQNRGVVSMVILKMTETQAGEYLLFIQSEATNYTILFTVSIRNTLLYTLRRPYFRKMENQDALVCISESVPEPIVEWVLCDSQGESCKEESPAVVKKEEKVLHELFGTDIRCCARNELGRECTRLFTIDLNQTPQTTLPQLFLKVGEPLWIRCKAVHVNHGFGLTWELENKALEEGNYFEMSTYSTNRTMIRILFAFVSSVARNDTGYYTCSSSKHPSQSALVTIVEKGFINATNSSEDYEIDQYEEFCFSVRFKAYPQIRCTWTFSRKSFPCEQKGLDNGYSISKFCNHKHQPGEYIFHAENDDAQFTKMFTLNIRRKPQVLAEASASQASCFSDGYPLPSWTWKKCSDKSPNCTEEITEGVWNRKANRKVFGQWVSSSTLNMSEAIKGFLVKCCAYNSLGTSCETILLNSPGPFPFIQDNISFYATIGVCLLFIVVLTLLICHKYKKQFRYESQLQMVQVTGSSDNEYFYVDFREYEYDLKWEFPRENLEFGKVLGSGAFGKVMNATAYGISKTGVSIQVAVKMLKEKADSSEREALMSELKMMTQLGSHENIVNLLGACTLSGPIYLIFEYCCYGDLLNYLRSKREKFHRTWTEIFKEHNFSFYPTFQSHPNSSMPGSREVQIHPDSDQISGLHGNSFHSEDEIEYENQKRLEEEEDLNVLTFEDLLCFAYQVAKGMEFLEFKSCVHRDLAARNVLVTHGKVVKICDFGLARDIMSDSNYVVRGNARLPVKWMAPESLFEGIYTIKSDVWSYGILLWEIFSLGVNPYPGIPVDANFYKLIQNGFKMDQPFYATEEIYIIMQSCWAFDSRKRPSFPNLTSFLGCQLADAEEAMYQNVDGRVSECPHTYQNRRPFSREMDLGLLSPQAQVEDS
From the text: (§1) The NanoBRET assay measures kinase engagement in real time in the context of the intact cell. Unlike the previously described biochemical kinase assay methodology, the NanoBRET assay measures the binding and activity characteristics under equilibrium conditions using full-length kinases in the presence of cellular concentrations of ATP in live, uncompromised cells. As such, the assay provides a more relevant assessment of kinase potency and selectivity that would be expected to be observed in the native cellular environment, where potency is often considerably lower than that observed in the isolated biochemical assays (Vasta, J. D. et al., (2018) Cell Chem. Biol. 25, 206-214). The assay uses a Kinase-NanoLuc® fusion vector expressing a kinase protein to which a luciferase tag has been added, a cell-permeant fluorescent NanoBRET™ tracer, a NanoLuc® substrate, and an extracellular NanoLuc® inhibitor. Upon expression of the luciferase-tagged kinase, cells will produce a strong BRET signal only in the presence of the NanoBRET™ tracer. The extracellular NanoLuc® inhibitor ensures that the BRET signal observed emanates only from live cells. Because the BRET signal has tight distance constraints, addition of the test compound will decrease the BRET signal if the compound competes with the NanoBRET™ tracer for binding to the kinase domain. Under the appropriate tracer conditions established by the manufacturer, quantitative intracellular affinity and relative potency can then be determined using Mass Action model equations.
(§2) HEK-293 cells were purchased from ATCC. FuGENEHD Transfection Reagent, Kinase-NanoLucfusion plasmids, Transfection Carrier DNA, NanoBRETTracers and dilution buffer, NanoBRETNano-Glo Substrate, Extracellular NanoLucInhibitor were obtained from Promega.
(§3) Assays were conducted following Promega assay protocol with some modifications. HEK-293 Cells were transiently transfected with Kinase-NanoLucFusion Vector DNA by FuGENEHD Transfection Reagent. Testing compounds were delivered into 384 well assay plate by Echo 550 (LabcyteInc, Sunnyvale, CA). Transfected cells were harvested and mixed with NanoBRETTracer Reagent and dispensed into 384 well plates and incubated at 37 °C in 5% CO2 cell culture incubator for 1 hour. The NanoBRETNano-Glo Substrate plus Extracellular NanoLucInhibitor Solution were added into the wells of the assay plate and incubated for 2-3 minutes at room temperature. The donor emission wavelength (460 nm) and acceptor emission wavelength (600 nm) were measured in the En Visionplate reader. The BRET Ratios were calculated.
(§4) BRET Ratio=[(Acceptor sample÷Donor sample)−(Acceptor no-tracer control÷Donor no-tracer control)].
(§5) The IC50 values of compounds were calculated with Prism GraphPad program.
(§6) • 1). Cultivate HEK-293 cells (70-80% confluence) appropriately prior to assay. Trypsinize and collect HEK-293 cells. • 2). Prepare lipid:DNA complexes as follows: • a. Prepare a 10 μg/ml solution of DNA in Opti-MEM without serum that consists of the following ratios of carrier DNA and DNA encoding NanoLuc® fusion. 9.0 μg/mL of Transfection Carrier DNA, 1.0 μg/mL of NanoLuc fusion vector DNA and 1 mL of Opti-MEM without phenol red. Mix thoroughly. • b. Add 30 μl of FuGENE HD Transfection Reagent into each milliliter of DNA mixture to form lipid:DNA complex. • c. Mix by inversion 10 times. • d. Incubate at ambient temperature for 20 minutes to allow complexes to form. • 3). In a sterile, conical tube, mix 1 part of lipid:DNA complex with 20 parts of HEK-293 cells in suspension. Mix gently by inversion 5 times. • 4). Dispense cells+lipid:DNA complex into a sterile tissue culture dish and incubate for 22-24 hours.
(§7) Each test compound is delivered from the compound source plate to the wells of 384-well white NBS plate by Echo 550.
(§8) 3. Preparation of Cells with NanoBRET™ Tracer Reagent • 1). Remove medium from dish with transfected HEK-293 cells via aspiration, trypsinize and allow cells to dissociate from the dish. • 2). […]

IRAK4 = biological target: T2, IRAK4 (Homo sapiens, UniProt Q9NWZ3); assay: NanoBRET target engagement assay in HEK-293 cells, IRAK4; format: cell-based; conditions: live HEK-293 cells, 1 h
T2 sequence (Q9NWZ3 1-460): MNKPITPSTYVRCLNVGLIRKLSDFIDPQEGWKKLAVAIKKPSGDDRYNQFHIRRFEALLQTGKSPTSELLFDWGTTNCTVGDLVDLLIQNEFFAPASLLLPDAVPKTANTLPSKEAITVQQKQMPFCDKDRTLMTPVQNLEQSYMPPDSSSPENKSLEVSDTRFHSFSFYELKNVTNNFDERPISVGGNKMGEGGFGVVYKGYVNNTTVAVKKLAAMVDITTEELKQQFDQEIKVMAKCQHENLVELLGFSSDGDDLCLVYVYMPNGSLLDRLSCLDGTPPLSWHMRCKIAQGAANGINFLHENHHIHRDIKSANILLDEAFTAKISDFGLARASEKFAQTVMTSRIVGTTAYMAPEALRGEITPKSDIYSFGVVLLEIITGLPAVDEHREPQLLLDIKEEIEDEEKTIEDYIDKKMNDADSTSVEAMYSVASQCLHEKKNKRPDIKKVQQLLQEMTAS
From the text: as §1, §2, §3, §4, §5, §6, §7, §8

| IC50 (FLT3; Table 20) [nM] | IC50 (IRAK4; Table 20) [nM] | IC50 (FLT3; Table 14) [nM] | IC50 (IRAK4; Table 14) [nM] | SMILES |
| --- | --- | --- | --- | --- |
| 2 | < 0.5 | – | – | COc1cn2ncc(-c3nc(N[C@H]4CNCC[C@@H]4F)ncc3F)c2nc1C1CC1 [Compound 15a, 4-(5-cyclopropyl-6-methoxypyrazolo[1,5-a]pyrimidin-3-yl)-5-fluoro-N-((3S,4S)-4-fluoropiperidin-3-yl)pyrimidin-2-amine] |
| – | – | 0.6 | < 0.5 | COc1cn2ncc(-c3cccc(N[C@H]4CNCC[C@@H]4F)n3)c2nc1C1CC1 [Compound 21, 6-(5-cyclopropyl-6-methoxypyrazolo[1,5-a]pyrimidin-3-yl)-N-((3S,4S)-4-fluoropiperidin-3-yl)pyridin-2-amine] |
| – | – | < 0.5 | < 0.5 | COc1cn2ncc(-c3nc(N[C@H]4CNCC[C@@H]4F)c(F)cc3F)c2nc1C1CC1 [Compound 22, 6-(5-cyclopropyl-6-methoxypyrazolo[1,5-a]pyrimidin-3-yl)-3,5-difluoro-N-((3S,4S)-4-fluoropiperidin-3-yl)pyridin-2-amine] |
